In patent publication US12661410B2, “Compounds for targeted degradation of RET” (C4 Therapeutics, Inc., priority 2020, dated 2026):
Changes are numbered by the printed parent chain. Read-outs that look alike come from different tables or passages of the source.

Legend:
[1] = target: T1, RET (658-1114) (Homo sapiens, UniProt P07949); test: HiBiT-Degradation, RET wild-type degradation assay (Nano-Glo HiBiT Lytic), 293T.144 cells; assay type: cell-based; conditions: for Emax / DC50: 6.0 hours; for Emax: read-out: 293T.144 RET (658-1114) 6.0 hours (Emax); for DC50: read-out: 293T.144 RET (658-1114) 6.0 hours (DC50)
T1 construct: 658-1114; expressed in transfected cells; host or cells: 293T.144 (293T cells, generated in-house)
T1 sequence (P07949 658-1114): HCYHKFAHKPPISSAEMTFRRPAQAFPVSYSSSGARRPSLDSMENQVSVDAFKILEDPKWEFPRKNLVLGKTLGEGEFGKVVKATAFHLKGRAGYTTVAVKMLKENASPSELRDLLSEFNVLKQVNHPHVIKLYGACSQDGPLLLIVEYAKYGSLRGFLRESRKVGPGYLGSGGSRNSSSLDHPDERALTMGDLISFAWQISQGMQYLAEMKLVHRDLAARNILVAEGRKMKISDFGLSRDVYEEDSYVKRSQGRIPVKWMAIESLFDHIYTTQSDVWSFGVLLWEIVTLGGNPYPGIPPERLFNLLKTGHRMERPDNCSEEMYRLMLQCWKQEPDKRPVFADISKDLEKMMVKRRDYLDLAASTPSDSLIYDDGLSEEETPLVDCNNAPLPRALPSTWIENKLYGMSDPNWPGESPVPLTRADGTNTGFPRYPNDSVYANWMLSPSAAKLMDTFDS
Summary of the method: (§1)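 HEK293T lines stably expressing HiBiT-tagged RET kinase domain (WT: 293T.144; G810R: 293T.165) were treated with degraders for 6 h in duplicate, 11-point half-log series from 10 μM top dose. Lysis with Nano-Glo HiBiT Lytic reagent, luminescence read; DC50 and Emax (% remaining protein) derived from dose-response curves.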

[2] = target: T2, RET(KD: 658-1114 G810R) (Homo sapiens, UniProt P07949, G810R); test: HiBiT-Degradation, RET G810R degradation assay (Nano-Glo HiBiT Lytic), 293T.165 cells; assay type: cell-based; conditions: for Emax / DC50: 6.0 hours; for Emax: % remaining protein, read-out: 293T.165 RET(KD: 658-1114 G810R) 6.0 hours (Emax); for DC50: read-out: 293T.165 RET(KD: 658-1114 G810R) 6.0 hours (DC50)
T2 construct: 658-1114; expressed in transfected cells; host or cells: 293T.165 (293T cells, generated in-house)
T2 sequence (P07949 658-1114 G810R): T1 sequence (P07949 658-1114) with G153R
Summary of the method: as §1

[3] = half-maximal degradation concentration

| Compound | 293T.144 RET (658-1114) 6.0 hours (IP) [nM] [1] | Emax ([1]; % remaining protein) | DC50 [1, 3] | 293T.165 RET(KD: 658-1114 G810R) 6.0 hours (IP) [nM] [2] | Emax [2] | DC50 [2, 3] | 293T.144 RET (658-1114) 6.0 hours (IP) [nM] ([1]; HiBiT-Degradation) | DC50 ([1]; HiBiT-Degradation) | Emax ([1]; HiBiT-Degradation) | 293T.165 RET(KD: 658-1114 G810R) 6.0 hours (Emax) ([2]; HiBiT-Degradation) | 293T.165 RET(KD: 658-1114 G810R) 6.0 hours (IP) [nM] ([2]; HiBiT-Degradation) | DC50 ([2]; HiBiT-Degradation) |
| --- | --- | --- | --- | --- | --- | --- | --- | --- | --- | --- | --- | --- |
| COc1ccc(NC2CCN(c3ccc(-c4nc(-c5cnn([C@H]6CC[C@@H](N7CCN(c8c(F)cc(NC9CCC(=O)NC9=O)cc8F)CC7)CC6)c5)cn5ncc(C#N)c45)cn3)CC2)cn1 (single isomer, unassigned) [Compound 203, 6-(1-((1s, 4s)-4-(4-(4-((2,6-Dioxopiperidin-3-yl)amino)-2,6-difluorophenyl)piperazin-1-yl)cyclohexyl)-1H-pyrazol-4-yl)-4-(6-(4-((6-methoxypyridin-3-yl)amino)piperidin-1-yl)pyridin-3-yl)pyrazolo[1,5-a]pyrazine-3-carbonitrile] | ++++ (<50 nM = ++++) | < 30% | < 50 nM | ++++ (<50 nM = ++++) | < 30% | < 50 nM |  |  |  |  |  |  |
| CCC1(C(=O)NC2CCCC2)CCN(c2ccc(-c3nc(-c4cnn([C@H]5CC[C@H](N6CCC(c7ccc(N[C@H]8CCC(=O)NC8=O)cc7F)CC6)CC5)c4)cn4ncc(C#N)c34)cn2)CC1 [Compound 141, 1-[5-[3-cyano-6-[1-[4-[4-[4-[[(3S)-2,6-dioxo-3-piperidyl]amino]-2-fluoro-phenyl]-1-piperidyl]cyclohexyl]pyrazol-4-yl]pyrazolo[1,5-a]pyrazin-4-yl]-2-pyridyl]—N-cyclopentyl-4-ethyl-piperidine-4-carboxamide] | ++++ (<50 nM = ++++) | < 30% | < 50 nM | ++++ (<50 nM = ++++) | < 30% | < 50 nM |  |  |  |  |  |  |
| CCC1(C(=O)NC(C)C)CCN(c2ccc(-c3cc(-c4ccc(N5CCC(O)(CCN6CCC(c7ccc(NC8CCC(=O)NC8=O)cc7F)CC6)CC5)cc4)cn4ncc(C#N)c34)cn2)CC1 (stereo not drawn) [Compound 39, 1-(5-(3-Cyano-6-(4-(4-(2-(4-(4-((2,6-dioxopiperidin-3-yl)amino)-2-fluorophenyl)piperidin-1-yl)ethyl)-4-hydroxypiperidin-1-yl)phenyl)pyrazolo[1,5-a]pyridin-4-yl)pyridin-2-yl)-4-ethyl-N-isopropylpiperidine-4-carboxamide] |  |  |  |  | < 30% | < 50 nM | ++++ (< 50 nM = ++++) | < 50 nM | < 30% | ++++ (< 30% = ++++) | ++++ (< 50 nM = ++++) | < 50 nM |
| CC(C)CC(=O)N1CCN(c2ccc(-c3nc(-c4cnn(C5CCN(C(=O)CC6CCN(c7ccc(NC8CCC(=O)NC8=O)cc7F)CC6)CC5)c4)cn4ncc(C#N)c34)cn2)CC1 (stereo not drawn) [Compound 185, 6-(1-(1-(2-(1-(4-((2,6-dioxopiperidin-3-yl)amino)-2-fluorophenyl)piperidin-4-yl)acetyl)piperidin-4-yl)-1H-pyrazol-4-yl)-4-(6-(4-(3-methylbutanoyl)piperazin-1-yl)pyridin-3-yl)pyrazolo[1,5-a]pyrazine-3-carbonitrile] | ++++ (<50 nM = ++++) | < 30% | < 50 nM | ++++ (<50 nM = ++++) | < 50% | < 100 nM |  |  |  |  |  |  |
| N#Cc1cnn2cc(-c3cnn([C@H]4CC[C@@H](N5CCN(c6c(F)cc(NC7CCC(=O)NC7=O)cc6F)CC5)CC4)c3)cc(-c3ccc(N4CCC5(CC4)OCc4cccnc45)nc3)c12 (single isomer, unassigned) [Compound 202, 4-(6-(5H-spiro[furo[3,4-b]pyridine-7,4′-piperidin]-1′-yl)pyridin-3-yl)-6-(1-((1s, 4s)-4-(4-(4-((2,6-dioxopiperidin-3-yl)amino)-2,6-difluorophenyl)piperazin-1-yl)cyclohexyl)-1H-pyrazol-4-yl)pyrazolo[1,5-a]pyridine-3-carbonitrile] | ++++ (<50 nM = ++++) | < 30% | < 50 nM | ++++ (<50 nM = ++++) | < 30% | < 50 nM |  |  |  |  |  |  |
| COc1cc(N2CCN([C@H]3CC[C@H](n4cc(-c5cn6ncc(C#N)c6c(-c6ccc(N7C[C@H]8COC[C@@H](C7)N8CC7CCOCC7)nc6)n5)cn4)CC3)CC2)c(F)cc1NC1CCC(=O)NC1=O (single isomer, unassigned) [Compound 166] | ++++ (<50 nM = ++++) | < 30% | < 50 nM | ++++ (<50 nM = ++++) | < 30% | < 100 nM |  |  |  |  |  |  |
| CC(C)NC(=O)C1(C)CCN(c2ccc(-c3cc(-c4ccc(N5CCN(C(=O)CC6(O)CCN(c7ccc(NC8CCC(=O)NC8=O)cc7F)CC6)CC5)cc4)cn4ncc(C#N)c34)cn2)CC1 (stereo not drawn) [Compound 32, 1-(5-(3-Cyano-6-(4-(4-(2-(1-(4-((2,6-dioxopiperidin-3-yl)amino)-2-fluorophenyl)-4-hydroxypiperidin-4-yl)acetyl)piperazin-1-yl)phenyl)pyrazolo[1,5-a]pyridin-4-yl)pyridin-2-yl)-N-isopropyl-4-methylpiperidine-4-carboxamide] |  |  |  |  | < 50% | < 50 nM | ++++ (< 50 nM = ++++) | < 50 nM | < 30% | +++ (<50% = +++) | ++++ (< 50 nM = ++++) | < 50 nM |
| CC(C)(C)OC(=O)N1[C@@H]2COC[C@H]1CN(c1ccc(-c3nc(-c4cnn([C@H]5CC[C@@H](N6CCN(c7ccc(NC8CCC(=O)NC8=O)cc7F)CC6)CC5)c4)cn4ncc(C#N)c34)cn1)C2 (single isomer, unassigned) [Compound 159] | ++++ (<50 nM = ++++) | < 30% | < 50 nM | ++++ (<50 nM = ++++) | < 30% | < 50 nM |  |  |  |  |  |  |
| CC(C)NC(=O)C1(C)CCN(c2ccc(-c3cc(-c4ccc(N5CCN(C(=O)CN6CCC(c7ccc(NC8CCC(=O)NC8=O)cc7F)CC6)CC5)cc4)cn4ncc(C#N)c34)cc2)CC1 (stereo not drawn) [Compound 50, 1-[4-[3-cyano-6-[4-[4-[2-[4-[4-[(2,6-dioxo-3-piperidyl)amino]-2-fluoro-phenyl]-1-piperidyl]acetyl]piperazin-1-yl]phenyl]pyrazolo[1,5-a]pyridin-4-yl]phenyl]-N-isopropyl-4-methyl-piperidine-4-carboxamide] |  |  |  |  | < 30% | < 100 nM | ++++ (< 50 nM = ++++) | < 50 nM | < 30% | ++++ (< 30% = ++++) | ++++ (< 50 nM = ++++) | < 100 nM |
| CCC1(C(=O)NC(C)(C)C)CCN(c2ccc(-c3nc(-c4cnn([C@H]5CC[C@H](N6CCC(c7ccc(N[C@H]8CCC(=O)NC8=O)cc7F)CC6)CC5)c4)cn4ncc(C#N)c34)cn2)CC1 (single isomer, unassigned) [Compound 145] | ++++ (<50 nM = ++++) | < 30% | < 50 nM | ++++ (<50 nM = ++++) | < 30% | < 50 nM |  |  |  |  |  |  |
| CCC1(C(=O)NC(C)C)CCN(c2ccc(-c3nc(-c4cnn(C5CC6(C5)CN(C(=O)CC5(O)CCN(c7ccc(NC8CCC(=O)NC8=O)cc7F)CC5)C6)c4)cn4ncc(C#N)c34)cn2)CC1 (stereo not drawn) [Compound 183, 1-[5-[3-cyano-6-[1-[2-[2-[1-[4-[(2,6-dioxo-3-piperidyl)amino]-2-fluoro-phenyl]-4-hydroxy-4-piperidyl]acetyl]-2-azaspiro[3.3]heptan-6-yl]pyrazol-4-yl]pyrazolo[1,5-a]pyrazin-4-yl]-2-pyridyl]-4-ethyl-N-isopropyl-piperidine-4-carboxamide] | ++++ (<50 nM = ++++) | < 30% | < 50 nM | ++++ (<50 nM = ++++) | < 30% | < 50 nM |  |  |  |  |  |  |
